Molecular target: T1, EBP (Homo sapiens, UniProt Q15125)
T1 construct: HEK293T cells were utilized as the source of EBP enzyme; endogenous in cells; host or cells: HEK293T
Test: EBP Functional Assay (EBP immunoaffinity LC-MS assay)
Type: biochemical
Settings: not given
Procedure: The EBP immunoaffinity (IA) LC-MS assay measures the potency of small molecule inhibitors of EBP by quantifying their concentration-dependent changes in the enzyme's substrate and product using liquid chromatography atmospheric pressure chemical ionization multiple reaction monitoring mass spectrometry (LC-APCI MRM MS). HEK293T cells were utilized as the source of EBP enzyme. The enzyme was incubated with the small molecule inhibitors at variable concentrations for 30 min. Deuterated form of EBP substrate, zymosterol-d5 (Avanti Polar Lipids, Cat #700068P-1 mg), was then added and the plate was incubated at 37 °C for 4 h. Finally, the sterol isomers were extracted and injected to LC-APCI MRM MS. MRM transition used for the quantification for both zymosterol and dihydrolathosterol (substrate and product of EBP enzymatic reaction, respectively) is 372.3-203.2, CE 30 and DP 80 in positive ion mode. Percent conversion of the zymosterol-d5 to dehydrolathosterol-d5 was used to derive IC50 curves. Tasin-1 (1′-[(4-Methoxyphenyl)sulfonyl]-4-methyl-1,4′-bipiperidine, CAS 792927-06-1) was used as the reference small molecule inhibitor.
Percent conversion versus the compound concentration data were fit to the following 4-parameter logistic model to generate IC50 curves: […]

T1 sequence (Q15125 whole entry): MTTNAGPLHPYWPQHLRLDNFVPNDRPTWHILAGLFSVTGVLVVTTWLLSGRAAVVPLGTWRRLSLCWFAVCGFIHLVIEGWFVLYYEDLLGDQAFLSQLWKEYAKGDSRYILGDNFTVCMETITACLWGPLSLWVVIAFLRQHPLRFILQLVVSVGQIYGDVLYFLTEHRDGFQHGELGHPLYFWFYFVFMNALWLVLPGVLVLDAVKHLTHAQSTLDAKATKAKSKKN

IC50 [nM]	Compound
500 to 3000	N#Cc1cc(F)cc(S(=O)(=O)N2CC3(CC[C@H](N4CCOCC4)C3)C2)c1 [Example 52, (S)-3-Fluoro-5-((6-morpholino-2-azaspiro[3.4]octan-2-yl)sulfonyl)benzonitrile]
500 to 3000	Cn1nc(C(F)(F)F)cc1S(=O)(=O)N1CC2(CC(N3CC4(CCO4)C3)C2)C1 [Example 15, 6-(2-((1-Methyl-3-(trifluoromethyl)-1H-pyrazol-5-yl)sulfonyl)-2-azaspiro[3.3]heptan-6-yl)-1-oxa-6-azaspiro[3.3]heptane]
500 to 3000	N#Cc1cc(F)cc(S(=O)(=O)N2CC3(CC[C@@H](N4CCOCC4)C3)C2)c1 [Example 50, (R)-3-Fluoro-5-((6-morpholino-2-azaspiro[3.4]octan-2-yl)sulfonyl)benzonitrile]
< 100	COc1ccc(S(=O)(=O)N2CC3(CCC(N4CCOCC4)C3)C2)c(C(F)(F)F)n1 (stereo not shown) [Example 39, 4-(2-((6-Methoxy-2-(trifluoromethyl)pyridin-3-yl)sulfonyl)-2-azaspiro[3.4]octan-6-yl)morpholine]
100 to 500	Cc1cc(C(F)(F)F)ncc1S(=O)(=O)N1CC2(CCC(N3CCOCC3)C2)C1 (stereo not shown) [Example 41, 4-(2-((4-Methyl-6-(trifluoromethyl)pyridin-3-yl)sulfonyl)-2-azaspiro[3.4]octan-6-yl)morpholine]
< 100	COc1ccc(S(=O)(=O)N2CC3(CCC(N4CCOCC4)C3)C2)c(C)n1 (stereo not shown) [Example 48, 4-(2-((6-methoxy-2-methylpyridin-3-yl)sulfonyl)-2-azaspiro[3.4]octan-6-yl)morpholine]
500 to 3000	Cc1nc(C(C)(F)F)ccc1S(=O)(=O)N1CC2(CC(N3CC4(CCO4)C3)C2)C1 [Example 68, 6-(2-((6-(1,1-difluoroethyl)-2-methylpyridin-3-yl)sulfonyl)-2-azaspiro[3.3]heptan-6-yl)-1-oxa-6-azaspiro[3.3]heptane]
> 3000	Cc1nc(C(F)(F)F)ncc1S(=O)(=O)N1CC2(CC(N3CC4(COC4)C3)C2)C1 [Example 17, 6-(2-((4-Methyl-2-(trifluoromethyl)pyrimidin-5-yl)sulfonyl)-2-azaspiro[3.3]heptan-6-yl)-2-oxa-6-azaspiro[3.3]heptane]
100 to 500	Cc1cc(S(=O)(=O)N2CC3(CCC(N4CCOCC4)C3)C2)n(C)n1 (stereo not shown) [Example 36, 4-(2-((1,3-Dimethyl-1H-pyrazol-5-yl)sulfonyl)-2-azaspiro[3.4]octan-6-yl)morpholine]
< 100	Cc1nc(C(F)(F)F)ccc1S(=O)(=O)N1CC2(CCC(N3CCOCC3)C2)C1 (stereo not shown) [Example 40, 4-(2-((2-Methyl-6-(trifluoromethyl)pyridin-3-yl)sulfonyl)-2-azaspiro[3.4]octan-6-yl)morpholine]

Same assay, conditions: HEK293T cells as source of EBP enzyme; zymosterol-d5 substrate; inhibitor 30 min, then 37 °C for 4 h; percent conversion to dehydrolathosterol-d5 by LC-APCI MRM MS; read-out: EBP Functional Assay

Compound	IC50 [nM]
Cc1nc(C(F)(F)F)ncc1S(=O)(=O)N1CC2(CC(NC3COC3)C2)C1 [Example 77, 2-((4-methyl-2-(trifluoromethyl)pyrimidin-5-yl)sulfonyl)-N-(oxetan-3-yl)-2-azaspiro[3.3]heptan-6-amine]	500 to 3000
Cc1nc(C(F)(F)F)ccc1S(=O)(=O)N1CC2(CC(NC3COC3)C2)C1 [Example 8, 2-((2-Methyl-6-(trifluoromethyl)pyridin-3-yl)sulfonyl)-N-(oxetan-3-yl)-2-azaspiro[3.3]heptan-6-amine]	500 to 3000
Cc1cnc(S(=O)(=O)N2CC3(CCC(N4CCOCC4)C3)C2)c(C)c1 (stereo not shown) [Example 29, 4-(2-((3,5-Dimethylpyridin-2-yl)sulfonyl)-2-azaspiro[3.4]octan-6-yl)morpholine]	500 to 3000
Cc1cc(S(=O)(=O)N2CC3(CC[C@H](N4CCOCC4)C3)C2)n(C)n1 (single isomer, unassigned) [Example 67]	500 to 3000

Next, values leading:

IC50 [nM]	Compound
< 100	Cc1nc(C(C)(F)F)ccc1S(=O)(=O)N1CC2(CC(N(C)C3CC4(COC4)C3)C2)C1 (stereo not shown) [Example 74, 2-((6-(1,1-difluoroethyl)-2-methylpyridin-3-yl)sulfonyl)-N-methyl-N-(2-oxaspiro[3.3]heptan-6-yl)-2-azaspiro[3.3]heptan-6-amine]
< 100	Cc1nc(C(C)(F)F)ccc1S(=O)(=O)N1CC2(CC(NCC3CCOCC3)C2)C1 [Example 71, 2-((6-(1,1-difluoroethyl)-2-methylpyridin-3-yl)sulfonyl)-N-((tetrahydro-2H-pyran-4-yl)methyl)-2-azaspiro[3.3]heptan-6-amine]
100 to 500	Cc1nc(C(F)(F)F)ccc1S(=O)(=O)N1CC2(CC(NC3(C4CCOCC4)CC3)C2)C1 [Example 7, 2-((2-Methyl-6-(trifluoromethyl)pyridin-3-yl)sulfonyl)-N-(1-(tetrahydro-2H-pyran-4-yl)cyclopropyl)-2-azaspiro[3.3]heptan-6-amine]
500 to 3000	Cc1nc(C(F)(F)F)ccc1S(=O)(=O)NC1CC2(C1)CN(C1CCOCC1)C2 [Example 18, 2-Methyl-N-(2-(tetrahydro-2H-pyran-4-yl)-2-azaspiro[3.3]heptan-6-yl)-6-(trifluoromethyl)pyridine-3-sulfonamide]
< 100	Cc1nc(Cl)ccc1S(=O)(=O)N1CC2(CC[C@@H](N3CCOCC3)C2)C1 (single isomer, unassigned) [Example 64]
100 to 500	Cn1nc(C(F)(F)F)cc1S(=O)(=O)N1CC2(CCC(N3CCOCC3)C2)C1 (stereo not shown) [Example 35, 4-(2-((1-Methyl-3-(trifluoromethyl)-1H-pyrazol-5-yl)sulfonyl)-2-azaspiro[3.4]octan-6-yl)morpholine]
100 to 500	COc1cc(S(=O)(=O)N2CC3(CCC(N4CCOCC4)C3)C2)n(C)n1 (stereo not shown) [Example 34, 4-(2-((3-Methoxy-1-methyl-1H-pyrazol-5-yl)sulfonyl)-2-azaspiro[3.4]octan-6-yl)morpholine]
100 to 500	COc1ccc(S(=O)(=O)N2CC3(CCC(NC4CCC(F)(F)CC4)C3)C2)c(C)n1 (stereo not shown) [Example 31, N-(4,4-Difluorocyclohexyl)-2-((6-methoxy-2-methylpyridin-3-yl)sulfonyl)-2-azaspiro[3.4]octan-6-amine]
100 to 500	Cn1nc(C(F)(F)F)cc1S(=O)(=O)N1CC2(CC[C@H](N3CCOCC3)C2)C1 [Example 51, (S)-4-(2-((1-methyl-3-(trifluoromethyl)-1H-pyrazol-5-yl)sulfonyl)-2-azaspiro[3.4]octan-6-yl)morpholine]
100 to 500	Cn1nc(C(F)(F)F)cc1S(=O)(=O)N1CC2(CC[C@@H](N3CCOCC3)C2)C1 [Example 49, (R)-4-(2-((1-Methyl-3-(trifluoromethyl)-1H-pyrazol-5-yl)sulfonyl)-2-azaspiro[3.4]octan-6-yl)morpholine]
100 to 500	Cc1nc(C(C)(F)F)ccc1S(=O)(=O)N1CC2(CC(N(C)CC3CCOCC3)C2)C1 [Example 75, 2-((6-(1,1-difluoroethyl)-2-methylpyridin-3-yl)sulfonyl)-N-methyl-N-((tetrahydro-2H-pyran-4-yl)methyl)-2-azaspiro[3.3]heptan-6-amine]
100 to 500	CC1CCN(C2COC3(C2)CN(S(=O)(=O)c2ccc(OC(F)F)cc2)C3)CC1 (stereo not shown) [Example 54, 2-((4-(Difluoromethoxy)phenyl)sulfonyl)-7-(4-methylpiperidin-1-yl)-5-oxa-2-azaspiro[3.4]octane]
< 100	Cc1nc(C(F)(F)F)ccc1S(=O)(=O)N1CC2(CC(NCC3(C)COC3)C2)C1 [Example 9, 2-((2-Methyl-6-(trifluoromethyl)pyridin-3-yl)sulfonyl)-N-((3-methyloxetan-3-yl)methyl)-2-azaspiro[3.3]heptan-6-amine]
< 100	Cc1nc(C(F)(F)F)ccc1S(=O)(=O)N1CC2(CC[C@@H](N3CCOCC3)C2)C1 (single isomer, unassigned) [Example 60]
100 to 500	Cc1nc(C(F)(F)F)ccc1S(=O)(=O)N1CC2(CC(NC3CCOCC3)C2)C1 [Example 3, 2-((2-Methyl-6-(trifluoromethyl)pyridin-3-yl)sulfonyl)-N-(tetrahydro-2H-pyran-4-yl)-2-azaspiro[3.3]heptan-6-amine]
100 to 500	Cc1cc(C(F)(F)F)ncc1S(=O)(=O)N1CC2(CC[C@H](N3CCOCC3)C2)C1 (single isomer, unassigned) [Example 63]
< 100	CN(C1CCC(F)(F)CC1)C1COC2(C1)CN(S(=O)(=O)c1cc(C#N)ccc1F)C2 (stereo not shown) [Example 59, 3-((7-((4,4-Difluorocyclohexyl)(methyl)amino)-5-oxa-2-azaspiro[3.4]octan-2-yl)sulfonyl)-4-fluorobenzonitrile]
100 to 500	Cc1nc(C(F)(F)F)ncc1S(=O)(=O)N1CC2(CC(N(C)C3COC3)C2)C1 [Example 81, N-methyl-2-((4-methyl-2-(trifluoromethyl)pyrimidin-5-yl)sulfonyl)-N-(oxetan-3-yl)-2-azaspiro[3.3]heptan-6-amine]
100 to 500	COc1ncc(C)cc1S(=O)(=O)N1CC2(CC(NC3CCC(F)(F)CC3)CO2)C1 (stereo not shown) [Example 24, N-(4,4-Difluorocyclohexyl)-2-((2-methoxy-5-methylpyridin-3-yl)sulfonyl)-5-oxa-2-azaspiro[3.4]octan-7-amine]
100 to 500	Cn1nc(C(F)(F)F)cc1S(=O)(=O)N1CC2(CC(NCC3COC3)C2)C1 [Example 11, 2-((1-Methyl-3-(trifluoromethyl)-1H-pyrazol-5-yl)sulfonyl)-N-(oxetan-3-ylmethyl)-2-azaspiro[3.3]heptan-6-amine]
